Laboratory results as given in patent US9840513B2 (AbbVie S.à.r.l., priority 2015, dated 2017).

Target: T1, F508delCFTR cell surface expression in CFBE41o-F508delCFTR-HRP cells (Homo sapiens, UniProt P13569, DEL508-508)
T1 construct: fused on or other part: Horseradish peroxidase (HRP) reporter inserted in the fourth exofacial (extracellular) loop of CFTR; expression is doxycycline-inducible
Test: Cell Surface Expression-Horse Radish Peroxidase (CSE-HRP) Assay
Assay type: cell-based
Conditions: for EC50: CFBE41o-F508delCFTR-HRP cells, 18-24 hours at 33° C., 8-point curve, highest concentration 20 μM; for Maximum % activity (%): maximum at any tested concentration, normalized to on-plate positive control (3 μM)
Description: Cell Surface Expression-Horse Radish Peroxidase (CSE-HRP) Assay:
A cellular assay for measuring the F508delCFTR cell surface expression after correction with test compounds was developed in human lung derived epithelial cell line (CFBE41o-) (Veit G et al, (2012) Mol Biol Cell. 23(21): 4188-4202). This was achieved by expressing the F508delCFTR mutation along with a horseradish peroxidase (HRP) in the fourth exofacial loop and then measuring the HRP activity using luminescence readout from these cells, CFBE41o-F508delCFTR-HRP, that were incubated overnight with the test corrector compounds. Briefly, for this primary assay, the CFBE41o-F508delCFTR-HRP cells were plated in 384-well plates (Greiner Bio-one; Cat 781080) at 4,000 cells/well along with 0.5 μg/mL doxycycline to induce the F508delCFTR-HRP expression and further incubated at 37° C., 5% CO2 for 72 hours. The test compounds were then added at the required concentrations and further incubated for 18-24 hours at 33° C. The highest concentration tested was 20 μM with an 8-point concentration response curve using a 3-fold dilution. Three replicate plates were run to determine one EC50. All plates contained negative controls (dimethyl sulfoxide, DMSO) and positive controls (3 μM of 3-[(2R,4R)-4-({[1-(2,2-difluoro-1,3-benzodioxol-5-yl)cyclopropyl]carbonyl}amino)-7-methoxy-3,4-dihydro-2H-chromen-2-yl]benzoic acid) as well as on-plate concentration response of the positive control. Post incubation, the plates were washed 5× times with Dulbecco's phosphate buffered saline (DPBS), followed by the addition of the HRP substrate, luminol (50 μL), and measuring the HRP activity using luminescence readout on EnVision® Multilabel Plate Reader (Perkin Elmer; product number 2104-0010). The raw counts from the experiment are analyzed using Accelrys® Assay Explorer v3.3.
Z′ greater than 0.5 was used as passing quality control criteria for the plates.
The Z′ is defined as: 1−[3*SDPositive Control+3*SDNegative Control/Absolute(MeanPositive Control−MeanNegative Control)] wherein “SD” is standard deviation.
The % activity measured at each of the 8 test concentrations of the test compound was normalized to the on-plate positive control using the following formula: % activity=[(test compound response DMSO response)/(positive control response DMSO response)]*100
The maximum % activity achieved for the test compound at any tested concentration is presented in Table 1 along with the EC50 calculated using the following general sigmoidal curve with variable Hill slope equation (described as Model 42 in the Accelrys® Assay Explorer v3.3 software): y=(a−d)/(1+(x/c)^b)+d
General sigmoidal curve with concentration, response, top, bottom, EC50 and Hill slope.
This model describes a sigmoidal curve with an adjustable baseline, a. The equation can be used to fit curves where response is either increasing or decreasing with respect to the independent variable, “x”.
“x” is a concentration of drug under test.
“a” is the maximum response, and “d” is the minimum response
“c” is the inflection point (EC50) for the curve. That is, “y” is halfway between the lower and upper asymptotes when x=c.
“b” is the slope-factor or Hill coefficient. The sign of b is positive when the response increases with increasing dose and is negative when the response decreases with increasing dose (inhibition).

T1 sequence (P13569 with tags, fused parts or gaps DEL508-508 limits assumed): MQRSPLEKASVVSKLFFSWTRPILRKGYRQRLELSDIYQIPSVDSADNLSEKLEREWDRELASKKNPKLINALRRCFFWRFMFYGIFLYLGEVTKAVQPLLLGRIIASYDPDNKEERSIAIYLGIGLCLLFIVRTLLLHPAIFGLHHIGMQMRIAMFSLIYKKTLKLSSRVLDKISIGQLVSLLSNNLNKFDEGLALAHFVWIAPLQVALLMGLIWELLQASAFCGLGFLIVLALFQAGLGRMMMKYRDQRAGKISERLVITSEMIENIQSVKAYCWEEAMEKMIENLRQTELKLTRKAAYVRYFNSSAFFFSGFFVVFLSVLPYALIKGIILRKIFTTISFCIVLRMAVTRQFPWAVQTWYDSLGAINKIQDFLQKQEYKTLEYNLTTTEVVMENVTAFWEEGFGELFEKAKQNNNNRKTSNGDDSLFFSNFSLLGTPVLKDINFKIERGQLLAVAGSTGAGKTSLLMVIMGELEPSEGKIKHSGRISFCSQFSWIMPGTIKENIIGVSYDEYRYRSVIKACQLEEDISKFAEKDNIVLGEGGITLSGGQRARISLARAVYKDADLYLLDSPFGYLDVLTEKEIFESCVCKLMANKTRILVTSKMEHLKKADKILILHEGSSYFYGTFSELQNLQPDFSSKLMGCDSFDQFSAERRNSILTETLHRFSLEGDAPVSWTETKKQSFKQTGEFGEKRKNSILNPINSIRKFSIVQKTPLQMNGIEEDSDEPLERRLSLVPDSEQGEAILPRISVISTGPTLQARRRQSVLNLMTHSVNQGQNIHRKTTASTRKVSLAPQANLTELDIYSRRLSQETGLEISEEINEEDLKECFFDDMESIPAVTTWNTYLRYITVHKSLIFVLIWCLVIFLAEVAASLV
T1 sequence (P13569 919-1480 limits assumed, stated change not applied): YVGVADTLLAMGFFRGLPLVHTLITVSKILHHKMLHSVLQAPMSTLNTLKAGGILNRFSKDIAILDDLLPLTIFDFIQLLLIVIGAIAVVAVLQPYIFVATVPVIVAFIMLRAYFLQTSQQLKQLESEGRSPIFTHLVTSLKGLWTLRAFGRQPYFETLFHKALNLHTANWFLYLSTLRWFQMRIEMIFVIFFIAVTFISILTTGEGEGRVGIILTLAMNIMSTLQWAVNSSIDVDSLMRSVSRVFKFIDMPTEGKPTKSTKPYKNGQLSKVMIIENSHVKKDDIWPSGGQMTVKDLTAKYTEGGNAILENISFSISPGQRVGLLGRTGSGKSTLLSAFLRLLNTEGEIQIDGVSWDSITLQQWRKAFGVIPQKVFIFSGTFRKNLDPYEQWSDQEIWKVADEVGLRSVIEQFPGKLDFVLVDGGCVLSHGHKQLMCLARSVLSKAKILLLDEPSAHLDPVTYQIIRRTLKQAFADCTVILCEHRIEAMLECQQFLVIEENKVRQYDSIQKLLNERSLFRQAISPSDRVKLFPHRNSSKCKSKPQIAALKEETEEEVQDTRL

EC50 [nM]	Maximum % activity (%)	Compound
620	140	Cc1ccc(NC(=O)[C@@]2(C)COc3cc4c(cc32)OC(F)(F)O4)nc1-c1cccc(C(O)CO)c1 (stereo partly drawn) [Example 126, (7R)—N-{6-[3-(1,2-dihydroxyethyl)phenyl]-5-methylpyridin-2-yl}-2,2-difluoro-7-methyl-6,7-dihydro-2H-furo[2,3-f][1,3]benzodioxole-7-carboxamide]
> 20000	7	C[C@@]1(C(=O)Nc2cc(C3CC3)nn(-c3ccc(C(=O)O)cc3)c2=O)COc2cc3c(cc21)OC(F)(F)O3 [Example 31, 4-[3-cyclopropyl-5-{[(7S)-2,2-difluoro-7-methyl-6,7-dihydro-2H-furo[2,3-f][1,3]benzodioxole-7-carbonyl]amino}-6-oxopyridazin-1(6H)-yl]benzoic acid]
1530	189	C[C@]1(C(=O)Nc2cccc(-c3ccc(C(=O)O)cc3F)n2)COc2cc3c(cc21)OC(F)(F)O3 [Example 123, 4-(6-{[(7R)-2,2-difluoro-7-methyl-6,7-dihydro-2H-furo[2,3-f][1,3]benzodioxole-7-carbonyl]amino}pyridin-2-yl)-3-fluorobenzoic acid]
9200	28	C[C@]1(C(=O)Nc2ccc(N3CCC(O)C3)nc2)COc2cc3c(cc21)OC(F)(F)O3 (stereo partly drawn) [Example 72, (7R)-2,2-difluoro-N-[6-(3-hydroxypyrrolidin-1-yl)pyridin-3-yl]-7-methyl-6,7-dihydro-2H-furo[2,3-f][1,3]benzodioxole-7-carboxamide]
260	117	COc1ccc2c(c1)O[C@@H](c1ccc(C(=O)NC3CCNC(=O)C3)cn1)C[C@H]2NC(=O)[C@@]1(C)COc2cc3c(cc21)OC(F)(F)O3 (stereo partly drawn) [Example 232, 6-[(2R,4R)-4-{[(7R)-2,2-difluoro-7-methyl-6,7-dihydro-2H-furo[2,3-f][1,3]benzodioxole-7-carbonyl]amino}-7-methoxy-3,4-dihydro-2H-1-benzopyran-2-yl]-N-(2-oxopiperidin-4-yl)pyridine-3-carboxamide]
540	91	C[C@]1(C(=O)Nc2cccc(N3CC[C@@H](S(C)(=O)=O)C3)n2)COc2cc3c(cc21)OC(F)(F)O3 [Example 111, (7R)-2,2-difluoro-N-{6-[(3R)-3-(methanesulfonyl)pyrrolidin-1-yl]pyridin-2-yl}-7-methyl-6,7-dihydro-2H-furo[2,3-f][1,3]benzodioxole-7-carboxamide]
290	138	C[C@]1(C(=O)N[C@@H]2C[C@H](C3CCC(CO)(C(=O)O)CC3)Oc3cc(OC(F)(F)F)ccc32)COc2cc3c(cc21)OC(F)(F)O3 (stereo partly drawn) [Example 288, 4-[(2R,4R)-4-{[(7R)-2,2-difluoro-7-methyl-6,7-dihydro-2H-furo[2,3-f][1,3]benzodioxole-7-carbonyl]amino}-7-(trifluoromethoxy)-3,4-dihydro-2H-1-benzopyran-2-yl]-1-(hydroxymethyl)cyclohexane-1-carboxylic acid]
8640	41	CC1(C(=O)Nc2nc(-c3ccc(C#N)cc3)cs2)COc2cc3c(cc21)OC(F)(F)O3 (stereo not drawn) [Example 63, N-[4-(4-cyanophenyl)-1,3-thiazol-2-yl]-2,2-difluoro-7-methyl-6,7-dihydro-2H-furo[2,3-f][1,3]benzodioxole-7-carboxamide]
2540	129	C[C@]1(C(=O)N[C@@H]2C[C@H](C3CCN(CC(=O)O)CC3)Oc3cc(OC(F)(F)F)ccc32)COc2cc3c(cc21)OC(F)(F)O3 [Example 187, {4-[(2R,4R)-4-{[(7R)-2,2-difluoro-7-methyl-6,7-dihydro-2H-furo[2,3-f][1,3]benzodioxole-7-carbonyl]amino}-7-(trifluoromethoxy)-3,4-dihydro-2H-1-benzopyran-2-yl]piperidin-1-yl}acetic acid]
3960	40	COc1ccc2c(c1)O[C@H](Cn1ncccc1=O)C[C@@H]2NC(=O)[C@@]1(C)COc2cc3c(cc21)OC(F)(F)O3 [Example 284, (7R)-2,2-difluoro-N-{(2S,4S)-7-methoxy-2-[(6-oxopyridazin-1(6H)-yl)methyl]-3,4-dihydro-2H-1-benzopyran-4-yl}-7-methyl-6,7-dihydro-2H-furo[2,3-f][1,3]benzodioxole-7-carboxamide]
1100	136	CC1CN(c2cccc(NC(=O)[C@@]3(C)COc4cc5c(cc43)OC(F)(F)O5)n2)CC1C(=O)O (stereo partly drawn) [Example 116, 1-(6-{[(7R)-2,2-difluoro-7-methyl-6,7-dihydro-2H-furo[2,3-f][1,3]benzodioxole-7-carbonyl]amino}pyridin-2-yl)-4-methylpyrrolidine-3-carboxylic acid]
1310	173	CC(C)(C)c1cc2cc(NC(=O)[C@@]3(C)COc4cc5c(cc43)OC(F)(F)O5)ccc2[nH]1 [Example 131, (7R)—N-(2-tert-butyl-1H-indol-5-yl)-2,2-difluoro-7-methyl-6,7-dihydro-2H-furo[2,3-f][1,3]benzodioxole-7-carboxamide]
30	129	COc1ccc2c(c1)O[C@@H](c1ccc(C(C)(C)O)cn1)C[C@H]2NC(=O)[C@@]1(C)COc2cc3c(cc21)OC(F)(F)O3 [Example 181, (7R)-2,2-difluoro-N-{(2R,4R)-2-[5-(2-hydroxypropan-2-yl)pyridin-2-yl]-7-methoxy-3,4-dihydro-2H-1-benzopyran-4-yl}-7-methyl-6,7-dihydro-2H-furo[2,3-f][1,3]benzodioxole-7-carboxamide]
2840	112	C[C@]1(C(=O)Nc2cccc(-c3cc(C(=O)O)cs3)n2)COc2cc3c(cc21)OC(F)(F)O3 [Example 86, 5-(6-{[(7R)-2,2-difluoro-7-methyl-6,7-dihydro-2H-furo[2,3-f][1,3]benzodioxole-7-carbonyl]amino}pyridin-2-yl)thiophene-3-carboxylic acid]
2220	60	CC(C)(C)OC(=O)CN1CCC([C@@H]2C[C@H](NC(=O)[C@@]3(C)COc4cc5c(cc43)OC(F)(F)O5)c3ccc(OC(F)(F)F)cc3O2)CC1 [Example 183, tert-butyl {4-[(2S,4S)-4-{[(7R)-2,2-difluoro-7-methyl-6,7-dihydro-2H-furo[2,3-f][1,3]benzodioxole-7-carbonyl]amino}-7-(trifluoromethoxy)-3,4-dihydro-2H-1-benzopyran-2-yl]piperidin-1-yl}acetate]
30	130	COc1ccc2c(c1)O[C@@H](c1ccc(C(=O)NC(CO)c3ccccc3)cn1)C[C@H]2NC(=O)[C@@]1(C)COc2cc3c(cc21)OC(F)(F)O3 (stereo partly drawn) [Example 216, 6-[(2R,4R)-4-{[(7R)-2,2-difluoro-7-methyl-6,7-dihydro-2H-furo[2,3-f][1,3]benzodioxole-7-carbonyl]amino}-7-methoxy-3,4-dihydro-2H-1-benzopyran-2-yl]-N-(2-hydroxy-1-phenylethyl)pyridine-3-carboxamide]
> 20000	3	Cc1ccc(NC(=O)[C@]2(C)COc3cc4c(cc32)OC(F)(F)O4)nc1-c1cccc(C(=O)OC(C)(C)C)c1 [Example 3, tert-butyl 3-(6-{[(7S)-2,2-difluoro-7-methyl-6,7-dihydro-2H-furo[2,3-f][1,3]benzodioxole-7-carbonyl]amino}-3-methylpyridin-2-yl)benzoate]
270	118	COc1ccc2c(c1)O[C@@H](c1ccc(Br)nc1)C[C@H]2NC(=O)[C@@]1(C)COc2cc3c(cc21)OC(F)(F)O3 [Example 176, (7R)—N-[(2R,4R)-2-(6-bromopyridin-3-yl)-7-methoxy-3,4-dihydro-2H-1-benzopyran-4-yl]-2,2-difluoro-7-methyl-6,7-dihydro-2H-furo[2,3-f][1,3]benzodioxole-7-carboxamide]
